Measurements: patent publication US20240417400A1, “ARYL HYDROCARBON RECEPTOR (AHR) MODULATORS AND THERAPEUTIC USES THEREOF” (GALILEO BIOSYSTEMS, INC., priority 2021, published 2024)

What was measured:
Format in all cases: cell-based
human keratinocytes [1] = assay: Inflammation of human keratinocytes induced by IL-17 and IFN-α: IL-8 release and cell viability; conditions: IL-17 and IFN-α induced, FIGS. 4A, 4B
Excerpt: (§1) The cells were exposed to Compound 6 or tapiranof and measured for inhibition of IL-8 release and cell viability. FIG. 4A depicts concentration response curves of inhibition of IL-8 release and cell viability for Compound 6. FIG. 4B depicts concentration response curves of inhibition of IL-8 release and cell viability for tapiranof.

human keratinocytes [2] = assay: Inflammation of human keratinocytes induced by IL-4, IL-13, IL-22 and IFN-γ: CCL2 release and cell viability; conditions: IL-4, IL-13, IL-22 and IFN-γ induced, FIGS. 3A, 3B
Excerpt: as §1, with “Inflammation of human keratinocytes was induced by IL-4, IL-13, IL-22 and IFN-γ. The” for “The”, “CCL2” for “IL-8”, “3A” for “4A”, “3B” for “4B”

T-cells = assay: Inflammation of T-cells induced by CD2, CD3 and CD28: IL-2 and IL-4 release; conditions: at the highest test concentrations, FIGS. 5A, 5B
Excerpt: as §1, with “Inflammation of T-cells were induced by CD2, CD3, and CD28. The” for “The”, “IL-2 and IL-4” for “IL-8”, “5A” for “4A”, “5B” for “4B”

[3] = system: gene expression biomarkers (CYP1A1, CCL17/TARC, CCL26/Eotaxin-3, Filaggrin) in freshly excised healthy human skin; assay: Gene expression biomarker activity screen in stimulated human skin explants (RT-qPCR); conditions: 10 μM in media, harvested 24 hours post stimulation
Protocol: Compound 6 and comparative compound tapinarof are evaluated for their ability to inhibit production of gene expression biomarkers using the biomarkers panel described in the below tables. Each compound is dissolved in DMSO at a dilution volume of 1000× and the resultant solutions are stored at −80° C. Concentrations tested include 1 μM, 5 μM, 10 μM, and 25 μM. Freshly excised healthy human skin is dermatomed to an approximate thickness of 750±100 μm using an Integra® dermatome according to US-SOP-3005 and US-SOP-3006. The dermatomed skin is sectioned into 7 mm biopsies and placed into 6.5 mm permeable membrane Transwell@ inserts with the Stratum corneum side apical and a section of collagen between the basal dermal tissue and the permeable membrane (n=4 per test sample). The Transwell® inserts have an average surface area of approximately 0.33 cm^2 and a volume of 0.5 mL. The basal chambers of the inserts are filled with 0.5 mL of Cornification media and the compound solutions are added to the media to a concentration of 10 μM. The inserts are stored in a humidified incubator overnight at 37° C. for approximately 16 hours. The contents of the basal chambers are vacuum aspirated and replaced with 0.5 mL of pre-warmed (ca. 37° C.) Cornification media containing the compound at a concentration of 10 μM and stimulation cocktail. Tissue explants are harvested at 24 hours post stimulation to measure production of the gene expression biomarkers by quantitative reverse transcription polymerase chain reaction (RT-qPCR). […] The test samples include untreated vehicle (control), TH1 stimulation control, TH2 stimulation control, TH17 stimulation control, tapinarof, and Compound 6.

production of CYP1A1 (gene expression) ([3]; FIG. 1A)	production of CCL17/TARC (gene expression) ([3]; FIG. 1B)	production of CCL26/Eotaxin-3 (gene expression) ([3]; FIG. 1C)	production of Filaggrin (gene expression) ([3]; FIG. 1D)	SMILES	inhibition of IL-8 release (human keratinocytes [1])	cell viability (human keratinocytes [2])	inhibition of CCL2 release (human keratinocytes [2])	inhibition of IL-2 release (T-cells)	inhibition of IL-4 release (T-cells)
significant induction	reduction/inhibition	reduction/inhibition	significant induction	O=c1c2ccccc2nc2n1CCc1c-2[nH]c2ccccc12 [Compound 6]	inhibited release of IL-8	did not affect cell viability	inhibited release of CCL2	inhibited release of IL-2	inhibited
				CC(C)c1c(O)cc(/C=C/c2ccccc2)cc1O [tapiranof, tapinarof, reference compound]	inhibited release of IL-8	inhibition of cell viability at higher concentrations	inhibited release of CCL2	inhibited release of IL-2	inhibited
